{
  "source": "patent US20220016272A1",
  "about": "“COMPOSITIONS, METHODS AND KITS FOR DIAGNOSING AND TREATING CD206 EXPRESSING CELL-RELATED DISORDERS” (Cardinal Health 414, LLC, priority 2013, published 2022)",
  "key": {"[1]": {"target": "mannose receptor protein CD206 (Homo sapiens, UniProt P22897)", "sequence (P22897 19-1456)": "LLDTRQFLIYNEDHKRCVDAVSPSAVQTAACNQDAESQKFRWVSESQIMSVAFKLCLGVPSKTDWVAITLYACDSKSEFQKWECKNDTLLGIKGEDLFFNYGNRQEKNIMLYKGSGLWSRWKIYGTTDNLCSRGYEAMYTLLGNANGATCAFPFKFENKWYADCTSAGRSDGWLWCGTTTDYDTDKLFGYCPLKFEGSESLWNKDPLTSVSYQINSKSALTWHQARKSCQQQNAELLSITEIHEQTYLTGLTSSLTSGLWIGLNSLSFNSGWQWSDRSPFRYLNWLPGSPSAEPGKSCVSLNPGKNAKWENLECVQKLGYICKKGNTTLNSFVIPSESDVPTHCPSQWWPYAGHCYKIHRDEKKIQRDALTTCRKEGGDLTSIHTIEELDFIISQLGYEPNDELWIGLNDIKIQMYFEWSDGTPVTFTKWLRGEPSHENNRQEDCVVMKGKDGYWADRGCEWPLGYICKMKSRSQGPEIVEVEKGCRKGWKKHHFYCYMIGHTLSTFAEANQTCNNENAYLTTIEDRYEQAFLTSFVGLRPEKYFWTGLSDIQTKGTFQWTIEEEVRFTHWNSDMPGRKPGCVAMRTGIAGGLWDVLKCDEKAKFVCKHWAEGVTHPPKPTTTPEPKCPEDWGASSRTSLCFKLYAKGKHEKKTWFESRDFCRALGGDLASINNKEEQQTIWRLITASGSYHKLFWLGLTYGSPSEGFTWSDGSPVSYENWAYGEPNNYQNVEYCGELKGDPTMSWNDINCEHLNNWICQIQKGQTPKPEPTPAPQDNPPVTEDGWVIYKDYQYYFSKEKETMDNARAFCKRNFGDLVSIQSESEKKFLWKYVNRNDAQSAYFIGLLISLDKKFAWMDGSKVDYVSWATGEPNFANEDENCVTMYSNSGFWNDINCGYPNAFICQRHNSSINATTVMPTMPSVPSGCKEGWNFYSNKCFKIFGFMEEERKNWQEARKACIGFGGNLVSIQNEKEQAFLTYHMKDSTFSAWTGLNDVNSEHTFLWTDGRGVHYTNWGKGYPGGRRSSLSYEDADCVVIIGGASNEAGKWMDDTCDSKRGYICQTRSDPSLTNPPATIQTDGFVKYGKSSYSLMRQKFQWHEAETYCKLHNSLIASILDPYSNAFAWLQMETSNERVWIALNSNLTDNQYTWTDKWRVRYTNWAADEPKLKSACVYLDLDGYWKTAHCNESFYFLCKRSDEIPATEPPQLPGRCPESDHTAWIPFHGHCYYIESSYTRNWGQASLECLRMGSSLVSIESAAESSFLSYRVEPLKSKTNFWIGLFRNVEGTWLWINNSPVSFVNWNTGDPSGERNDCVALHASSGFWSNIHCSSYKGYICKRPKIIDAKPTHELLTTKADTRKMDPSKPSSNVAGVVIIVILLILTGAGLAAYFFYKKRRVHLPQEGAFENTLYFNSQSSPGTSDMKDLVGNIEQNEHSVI"}, "[2]": {"system": "Kaposi's sarcoma lesion(s)", "test": "SPECT and SPECT/CT imaging of primary cutaneous Kaposi's sarcoma", "assay_type": "in vivo, human", "conditions": "50 μg tilmanocept, 2.0 mCi 99mTc, subcutaneous; example in present tense", "description": "The following illustrates yet another example of the evaluation of Primary Cutaneous Kaposi's Sarcoma (KS) by SPECT and SPECT/CT Imaging using Lymphoseek® (also known as technetium 99mTc-tilmanocept injection) a radiopharmaceutical that binds to mannose binding receptors (CD206) that reside on the surfaces of dendritic cells and macrophages.\nThe total volume of 99mTc-tilmanocept injection is 0.3 to 0.5 mL.\nThe patient has a marker lesion (>1 cm in diameter) with a confirmed diagnosis of KS (CD206-expressing cutaneous KS) via punch biopsy. The location of the marker KS lesion is on the extremities: from the shoulder to the metacarpal region or from the groin to the metatarsal region.\nThe dose is administered by a syringe with a ⅝ inch, 25- or 27-gauge, fixed needle, or other syringe/needle combinations that are acceptable for subcutaneous injections. The injection is made 1.5±0.25 cm distal from the marker lesion, 4-8 cm distal to the marker lesion, or 4-8 cm proximal to the marker lesion.\nThe patient undergoes a regional dynamic SPECT scan immediately post-injection for a duration of 30 minutes. After the initial scan, the patient undergoes whole body SPECT/CT imaging at 1 hour and whole body SPECT imaging at 4-6 hours post injection. The patient is permitted to leave the imaging center after the 4-6 hour SPECT scan. […]"}, "[3]": {"conditions": "staging breast cancer, melanoma or SCC; cited from earlier work"}},
  "data": [
    {"substance": "dextran 3-[(2-aminoethyl)thio]propyl 17-carboxy-10,13,16-tris (carboxymethyl)-8-oxo-4-thia-7,10,13,16-tetraazaheptadec-1-yl 3-[[2-[[1-imino-2-(D-mannopyranosylthio) ethyl]aminolethyllthiolpropyl ether complexes [tilmanocept]", "values": [
      {"measurement": "intracellular fate after uptake into macrophage", "setting": "[1]", "value": "persists in stable non-digesting vesicles"},
      {"measurement": "receptor specificity", "setting": "[1]; administered to mammals or contacted with CD206 expressing cells ex vivo", "value": "bind exclusively to the mannose receptor protein CD206"}
    ]},
    {"substance": "technetium Tc 99m, dextran 3-[(2-aminoethyl)thio]propyl 17-carboxy-10,13,16-tris(carboxymethyl)-8-oxo-4-thia-7,10,13,16-tetraaz aheptadec-1-yl 3-[[2-[[1-imino-2-(D-mannopyranosylthio) ethyl]amino]ethyl]thio]propyl ether complexes [Lymphoseek]", "values": [
      {"measurement": "detection of KS lesions by SPECT and SPECT/CT", "setting": "[2]", "value": "aids in the detection of Kaposi's sarcoma lesion(s)"},
      {"measurement": "injection site clearance", "setting": "[3]", "value": "rapid clearance from an injection site"},
      {"measurement": "uptake by distal or second-echelon lymph nodes", "setting": "[3]", "value": "low uptake by distal or second-echelon lymph nodes"},
      {"measurement": "uptake by the sentinel lymph node(s)", "setting": "[3]", "value": "rapid and sustained uptake by the sentinel lymph node(s)"}
    ]}
  ]
}
